The values below come from US20110281949A1, “METHODS AND COMPOSITIONS FOR TREATING NEURONAL DAMAGE AND MODULATING TRANSIENT RECEPTOR POTENTIAL CHANNELS” (priority 2008, published 2011).

“Also recorded” adds a separate entry of the source. Read-outs that look alike come from different tables or passages of the source.

Experiment [1] concerns the target T1, TRPL channels (Drosophila melanogaster, UniProt P48994).
T1 sequence (P48994 1-1124): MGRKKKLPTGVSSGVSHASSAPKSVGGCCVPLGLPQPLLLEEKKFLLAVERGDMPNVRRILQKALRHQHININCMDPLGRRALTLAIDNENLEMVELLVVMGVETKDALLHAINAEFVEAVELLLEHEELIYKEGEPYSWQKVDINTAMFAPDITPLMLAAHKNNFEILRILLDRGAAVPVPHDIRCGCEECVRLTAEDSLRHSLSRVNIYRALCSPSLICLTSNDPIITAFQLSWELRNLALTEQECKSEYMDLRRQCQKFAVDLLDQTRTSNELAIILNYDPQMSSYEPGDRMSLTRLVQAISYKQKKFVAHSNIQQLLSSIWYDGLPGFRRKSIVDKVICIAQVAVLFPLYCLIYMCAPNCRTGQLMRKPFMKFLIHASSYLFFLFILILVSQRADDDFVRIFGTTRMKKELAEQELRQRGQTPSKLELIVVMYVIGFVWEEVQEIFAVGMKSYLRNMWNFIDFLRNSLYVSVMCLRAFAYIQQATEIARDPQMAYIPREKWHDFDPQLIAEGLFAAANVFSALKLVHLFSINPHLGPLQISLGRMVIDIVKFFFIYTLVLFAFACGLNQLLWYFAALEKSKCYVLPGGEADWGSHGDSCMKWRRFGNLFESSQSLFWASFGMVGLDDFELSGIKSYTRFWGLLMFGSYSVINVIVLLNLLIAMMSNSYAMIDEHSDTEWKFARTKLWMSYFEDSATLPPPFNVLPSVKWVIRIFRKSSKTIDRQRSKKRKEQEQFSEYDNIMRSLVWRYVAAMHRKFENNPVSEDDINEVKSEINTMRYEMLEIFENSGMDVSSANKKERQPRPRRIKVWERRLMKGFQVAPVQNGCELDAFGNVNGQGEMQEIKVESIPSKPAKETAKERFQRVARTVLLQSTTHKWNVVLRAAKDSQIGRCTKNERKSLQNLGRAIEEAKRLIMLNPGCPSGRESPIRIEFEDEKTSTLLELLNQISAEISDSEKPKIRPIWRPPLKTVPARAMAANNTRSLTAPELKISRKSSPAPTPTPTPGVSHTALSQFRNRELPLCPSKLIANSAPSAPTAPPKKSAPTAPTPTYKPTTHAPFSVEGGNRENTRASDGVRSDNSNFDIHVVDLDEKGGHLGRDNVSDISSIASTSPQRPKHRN
Nature of the experiment: Whole-cell patch clamp of TRPL channels expressed in S2 cells. To be noted: for Effect on TRPL-mediated current: XIII 3 mM, XIV 1 mM, XII 2 mM, XV up to 5 mM, X 5 mM, XVI 5 mM, XI 10 mM; for TRPL Activation/Inhibition: TRPL expressed in S2 cells.
Method: Schneider 2 cells were grown in 25 cm^2 flasks at 25° C. in Schneider medium (Beit HaEmek biological industries, Israel) supplemented with 10% fetal bovine serum (FBS) and 1% pen-strep reagent.
24 hours prior to the experiment, 500 μM CuSO4 was added to the medium of the S2 cells to induce expression of the channels. […] Currents were recorded at room temperature using borosilicate patch pipettes of 5-8 MΩ and an Axopatch 1D (Molecular Devices, Inc.) voltage-clamp amplifier. […] Currents were filtered using the 8-pole low pass Bessel filter of the patch-clamp amplifier at 5 kHz and sampled at 20 kHz. To measure I-V curves with minimal distortions, only cells with low (<10 MΩ) series resistance were used, and series resistance was compensated to ˜80%.
For S2 cells, the extracellular solution contained in mM: 150 NaCl, 5 KCl, 4 MgCl2, 10 TES, 25 proline, 5 alanine and 0.5 EGTA. The intracellular solution contained in mM: 130 K-gluconate, 10 TES, 2 MgCl2, 4 Mg-ATP and 0.4 Na-GTP. […] All solutions were titrated to pH 7.2. Cells were perfused via a BPS-8 valve control system (Scientific Instruments) at a rate of ˜30 chamber volumes per minute. Chemicals were applied via the perfusion system.

The target of experiment [2] is TRPA1 (Homo sapiens, UniProt O75762). To be noted: irreversible, by covalent modification; cited from earlier work.
The target in experiment [3] is TRPM7 (Mus musculus, UniProt Q923J1). Nature of the experiment: Whole-cell patch clamp of TRPM7 expressed in HEK cells. Details: expressed in transfected cells; host or cells: HEK / HEK293 cells, transient, TransIT reagent (Mirus). Format: cell-based, mammalian. To be noted: HEK cells expressing TRPM7; IX 500 μM. On the technique in general: In patch-clamp work, channel activity is measured electrically.
Method: Human embryonic kidney (HEK) cells were grown in 25 cm^2 flasks at 37° C. in Dulbecco's Modified Eagle's Medium (DMEM) (Beit Haemek biological industries, Israel) supplemented with 10% FBS, 1% pen-strep and 1% L-Glutamine. TRPM7 (GenBank accession number NM—021450; SEQ ID No: 19; provided by David Clapham) and pIRES-eGFP were transiently expressed using TransIT™ reagent (Mirus).
Cells were seeded on polylysine-coated plates at a confluence of 25%, 24-72 hours prior to the experiment. […] Whole-cell, patch-clamp recordings were performed as described (Parnas et al, 2007). Currents were recorded at room temperature using borosilicate patch pipettes of 5-8 MΩ and an Axopatch 1D (Molecular Devices, Inc.) voltage-clamp amplifier. Voltage-clamp pulses were generated and data captured using a Digidata 1322A interfaced to a computer running the pClamp 9.2 software (Axon Instruments, Inc.). Currents were filtered using the 8-pole low pass Bessel filter of the patch-clamp amplifier at 5 kHz and sampled at 20 kHz. To measure I-V curves with minimal distortions, only cells with low (<10 MΩ) series resistance were used, and series resistance was compensated to ˜80%.
For HEK cells, the extracellular solution contained in mM: 140 NaCl, 2.8 KCl, 2 CaCl2, 1 MgCl2, HEPES and 10 glucose. The intracellular solution contained in mM: 140 Cs-Aspartate, 8 NaCl, 10 EGTA and 10 HEPES. All solutions were titrated to pH 7.2. Cells were perfused via a BPS-8 valve control system (Scientific Instruments) at a rate of ˜30 chamber volumes per minute. Chemicals were applied via the perfusion system.

For experiment [4], the system named is TRPV3. To be noted: literature; cited from earlier work.

Sequence of TRPM7 (Q923J1 whole entry): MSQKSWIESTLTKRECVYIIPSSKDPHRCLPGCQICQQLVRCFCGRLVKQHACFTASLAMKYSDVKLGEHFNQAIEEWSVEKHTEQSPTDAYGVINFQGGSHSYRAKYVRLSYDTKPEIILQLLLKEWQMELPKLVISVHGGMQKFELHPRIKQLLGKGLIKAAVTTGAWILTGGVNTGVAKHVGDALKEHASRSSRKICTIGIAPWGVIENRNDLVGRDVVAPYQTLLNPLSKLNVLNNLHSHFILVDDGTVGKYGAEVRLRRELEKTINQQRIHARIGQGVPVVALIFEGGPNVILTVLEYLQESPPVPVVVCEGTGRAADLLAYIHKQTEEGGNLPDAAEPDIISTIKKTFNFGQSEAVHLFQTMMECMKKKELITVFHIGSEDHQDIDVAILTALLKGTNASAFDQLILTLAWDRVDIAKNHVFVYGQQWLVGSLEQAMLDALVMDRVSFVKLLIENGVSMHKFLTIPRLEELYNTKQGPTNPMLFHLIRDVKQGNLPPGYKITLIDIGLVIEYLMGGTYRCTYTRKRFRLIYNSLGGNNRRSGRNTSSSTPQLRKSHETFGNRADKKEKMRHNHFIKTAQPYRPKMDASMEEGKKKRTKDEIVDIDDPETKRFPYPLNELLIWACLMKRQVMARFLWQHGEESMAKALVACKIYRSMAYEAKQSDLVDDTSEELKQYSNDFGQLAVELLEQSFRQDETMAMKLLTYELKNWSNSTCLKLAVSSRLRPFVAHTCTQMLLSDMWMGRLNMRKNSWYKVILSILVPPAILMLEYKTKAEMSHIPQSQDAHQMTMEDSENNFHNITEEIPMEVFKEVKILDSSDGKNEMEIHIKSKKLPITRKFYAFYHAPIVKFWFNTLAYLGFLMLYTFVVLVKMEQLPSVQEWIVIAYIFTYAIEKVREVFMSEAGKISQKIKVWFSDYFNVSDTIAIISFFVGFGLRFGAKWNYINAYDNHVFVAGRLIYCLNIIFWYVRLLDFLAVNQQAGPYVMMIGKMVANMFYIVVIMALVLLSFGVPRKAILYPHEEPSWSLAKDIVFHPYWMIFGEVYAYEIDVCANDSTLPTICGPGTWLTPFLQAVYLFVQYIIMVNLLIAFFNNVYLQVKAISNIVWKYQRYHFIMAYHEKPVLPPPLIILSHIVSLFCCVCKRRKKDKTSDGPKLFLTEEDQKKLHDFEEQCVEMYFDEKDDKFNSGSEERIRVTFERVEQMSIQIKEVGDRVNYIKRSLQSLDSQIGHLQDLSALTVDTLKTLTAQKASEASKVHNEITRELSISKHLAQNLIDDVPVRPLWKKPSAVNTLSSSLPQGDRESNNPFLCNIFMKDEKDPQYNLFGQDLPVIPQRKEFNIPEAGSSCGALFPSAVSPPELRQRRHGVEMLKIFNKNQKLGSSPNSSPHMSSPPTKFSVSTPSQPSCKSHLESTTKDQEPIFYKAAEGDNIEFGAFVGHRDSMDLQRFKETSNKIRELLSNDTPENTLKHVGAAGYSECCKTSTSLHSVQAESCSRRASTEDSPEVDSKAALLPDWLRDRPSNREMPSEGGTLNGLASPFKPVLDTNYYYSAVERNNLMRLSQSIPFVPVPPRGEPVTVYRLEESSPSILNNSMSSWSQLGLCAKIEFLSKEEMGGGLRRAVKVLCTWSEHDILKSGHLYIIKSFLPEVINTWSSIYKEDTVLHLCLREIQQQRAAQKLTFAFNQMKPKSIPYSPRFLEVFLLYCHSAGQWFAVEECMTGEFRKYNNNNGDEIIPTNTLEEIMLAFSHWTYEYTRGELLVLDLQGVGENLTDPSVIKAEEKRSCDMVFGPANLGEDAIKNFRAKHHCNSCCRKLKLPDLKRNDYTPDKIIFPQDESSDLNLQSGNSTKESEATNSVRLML
Sequence of TRPA1 (O75762 whole entry, species assumed): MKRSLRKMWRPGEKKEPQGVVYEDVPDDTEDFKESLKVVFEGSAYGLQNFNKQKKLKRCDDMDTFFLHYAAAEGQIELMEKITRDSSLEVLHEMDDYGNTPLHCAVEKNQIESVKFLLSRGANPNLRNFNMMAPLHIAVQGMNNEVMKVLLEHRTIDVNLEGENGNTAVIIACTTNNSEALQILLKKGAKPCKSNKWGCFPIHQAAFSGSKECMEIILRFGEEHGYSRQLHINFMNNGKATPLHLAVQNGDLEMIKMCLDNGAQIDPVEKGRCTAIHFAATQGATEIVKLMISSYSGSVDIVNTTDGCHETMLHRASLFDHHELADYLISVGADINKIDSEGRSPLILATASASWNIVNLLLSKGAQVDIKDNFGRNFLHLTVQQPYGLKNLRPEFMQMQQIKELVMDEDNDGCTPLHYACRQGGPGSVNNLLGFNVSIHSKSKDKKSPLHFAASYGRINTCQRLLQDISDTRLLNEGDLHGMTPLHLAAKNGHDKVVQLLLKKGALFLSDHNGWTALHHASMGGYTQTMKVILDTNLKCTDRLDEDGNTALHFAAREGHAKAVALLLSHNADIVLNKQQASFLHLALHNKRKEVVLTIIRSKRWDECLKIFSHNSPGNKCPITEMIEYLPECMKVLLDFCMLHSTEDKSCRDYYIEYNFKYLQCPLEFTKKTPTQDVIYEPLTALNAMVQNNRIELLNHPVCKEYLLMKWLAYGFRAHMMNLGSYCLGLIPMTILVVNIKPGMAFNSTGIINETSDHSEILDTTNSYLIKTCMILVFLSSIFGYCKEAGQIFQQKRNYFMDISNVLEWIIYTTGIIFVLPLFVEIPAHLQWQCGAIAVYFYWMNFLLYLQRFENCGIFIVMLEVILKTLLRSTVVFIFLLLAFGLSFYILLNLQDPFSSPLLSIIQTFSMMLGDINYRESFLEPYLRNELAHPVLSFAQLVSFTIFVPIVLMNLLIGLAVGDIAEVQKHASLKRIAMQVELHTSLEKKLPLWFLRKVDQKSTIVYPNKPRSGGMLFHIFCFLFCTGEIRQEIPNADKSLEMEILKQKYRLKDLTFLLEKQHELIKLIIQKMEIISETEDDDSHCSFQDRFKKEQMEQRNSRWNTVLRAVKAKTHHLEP

For `O=C(O)/C=C/c1ccc(O)c(O)c1` [Compound XV, 3,4-Dihydroxycinnamic acid], in experiment [1] (S2 cells, IX 500 μM, XVII 5 mM), the “Effect on TRPL-mediated current” value is recorded as “did not block TRPL”. The “TRPL Activation/Inhibition” value in experiment [1] was “No effect”.

What is called IC50 is the concentration that inhibits the measured activity by half. For the molecule `C=C(C)[C@@H]1CC=C(C)C(O)C1` (stereo partly drawn) [Compound XVI, (5R)-5-Isopropenyl-2-methyl-2-cyclohexenol], in experiment [1], inhibition was half-maximal at 4220 ± 400 µM (IC50) and the “TRPL Activation/Inhibition” value is “Inhibition”. For the same molecule, in experiment [1] (S2 cells, IX 500 μM, XVII 5 mM), the “Effect on TRPL-mediated current” value is “large decrease in the TRPL-dependent current”.

Turning to `O=C/C=C/c1ccccc1` [Compound XII, trans-3-Phenyl-2-propenal], in experiment [2], the TRPA1 activation result is reported as “activated”. In addition, the “Reversibility of effect on TRPL channel” value in experiment [1] (S2 cells) is on record as “reversible”. In experiment [1] (S2 cells, IX 500 μM, XVII 5 mM), the “Effect on TRPL-mediated current” value was “inhibited TRPL activity; also recorded: decreased the TRPL-mediated current”. Moreover, in experiment [1], the “TRPL Activation/Inhibition” value was “Inhibition”. For the same molecule, the concentration for half-maximal inhibition (IC50) in experiment [1] (read-out: IC50 of TRPL inhibition, S2 cells, whole-cell patch clamp) was determined as 1600 ± 300 µM. The “Effect on TRPM7-mediated current” value in experiment [3] is “inhibit TRPM7”.

On to `CC1(C)C2CCC1(C)C(O)C2` [Compound XVII, endo-(1R)-1,7,7-Trimethylbicyclo[2.2.1]heptan-2-ol], for which, in experiment [4], the TRPV3 activation entry is on record as “believed to activate TRPV3”. The “Reversibility of effect on TRPL channel” value in experiment [1] (S2 cells) is recorded as “completely reversible rapid activation”. Further, the “Effect on current when TRPL channels were not expressed (control)” value in experiment [1] (S2 cells without TRPL expression, IX 500 μM, XVII 5 mM) is recorded as “no effect”. For the same molecule, the “Effect on TRPL-mediated current” value in experiment [1] (S2 cells, IX 500 μM, XVII 5 mM) was “activated the TRPL channel; also recorded: activated the TRPL-mediated current”. Besides, the “TRPL Activation/Inhibition” value in experiment [1] is “Activation”. For the same molecule, the “Effect on TRPM7-mediated current” value in experiment [3] is on record as “inhibit TRPM7”.

Regarding `C=CCc1ccc(O)c(OC)c1` [Compound XIII, 2-Methoxy-4-(2-propenyl)phenol], in experiment [4], the TRPV3 activation result is recorded as “activate TRPV3”. Further, the “Effect on TRPL-mediated current” value in experiment [1] (S2 cells, IX 500 μM, XVII 5 mM) is “inhibited TRPL; also recorded: large decrease in the TRPL-dependent current”. In experiment [1], the “TRPL Activation/Inhibition” value is given as “Inhibition”.

For `CC(C)[C@@H]1CC[C@@H](C)C[C@H]1O` [Compound X, 2-Isopropyl-5-methylcyclohexanol], in experiment [1], the half-inhibitory concentration (IC50) was 1810 ± 130 µM and the “TRPL Activation/Inhibition” value is reported as “Inhibition”. For the same molecule, in experiment [1] (S2 cells, IX 500 μM, XVII 5 mM), the “Effect on TRPL-mediated current” value is “large decrease in the TRPL-dependent current”. For the same molecule, the “Effect on TRPM7-mediated current” value in experiment [3] was “inhibit TRPM7”.

`CC12CCC(CC1=O)C2(C)C` (stereo not drawn) [Compound XI, 1,7,7-Trimethylbicyclo[2.2.1]heptan-2-one]: the TRPV3 activation result in experiment [4] is listed as “believed to activate TRPV3”. Moreover, the “Effect on TRPL-mediated current” value in experiment [1] (S2 cells, IX 500 μM, XVII 5 mM) is recorded as “activated the TRPL channel”. In experiment [1], the “TRPL Activation/Inhibition” value was “Activation”.

Regarding `Cc1ccc(C(C)C)c(O)c1` [Compound XIV, 2-Isopropyl-5-methylphenol], the TRPV3 activation result in experiment [4] is “activate TRPV3”. In experiment [1] (S2 cells, IX 500 μM, XVII 5 mM), the “Effect on TRPL-mediated current” value was “inhibited TRPL; also recorded: large decrease in the TRPL-dependent current”. Moreover, the “TRPL Activation/Inhibition” value in experiment [1] is reported as “Inhibition”.
